Counter-ions that a name gives are not always drawn. Like-named read-outs stand apart in the source and are kept apart here.
Tests used:
p53-Y220C mutant protein = target: T1, p53-Y220C mutant protein (Homo sapiens, UniProt P04637, Y220C); assay: In vitro DNA binding activity assay (TR-FRET); type: biochemical; details: concentration required to increase the binding activity of protein to DNA by 50%
T1 construct: The recombinant Y220C p53 DBD protein with his-tag
How it was run: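 SC150, the compound concentration increasing p53-Y220C DNA binding by 50% relative to vehicle, came from background-corrected 665/615 nm TR-FRET ratios. His-tagged DBD and compound were preincubated 60 min at RT before biotin-DNA plus Eu-anti-His/streptavidin-d2 detection overnight in the dark.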

NUGC-3 cells = assay: NUGC-3 cell proliferation assay (CTG, 7 days); type: cell-based, human; details: Homo sapiens, NUGC-3, 168 h
Procedure: The cells were cultured in strict accordance with ATCC requirements.
Cell culture medium: 1640 culture medium, 10% serum, 1% penicillin + streptomycin.
Culture conditions: 37°C, 95% air, 5% carbon dioxide.
Compounds (20 mM) were subjected to gradient dilution in DMSO: 10 gradients, 3-fold dilution, duplicate wells.
Positive and negative controls (100% dimethyl sulfoxide) were prepared.
The compounds that were gradient diluted with DMSO and positive and negative controls (1st and 2nd step), each 75 nL, were transferred to 384-well cell culture plates by Echo550.
The cells were washed twice with PBS, digested with trypsin, and centrifuged for cell counting.
The experiment can only be carried out when the cell viability is above 90%.
The cells were plated into 384-well cell culture plates, with 200 (NUGC-3) cells and 30 µL of culture medium per well.
The 384-well microplate was placed in a cell culture incubator for 7 days.
30 µL of CTG detection reagent was added to the 384-well microplate.
The 384-well microplate was incubated for 30 min at 37°C, 5% carbon dioxide in the dark.
The reading was performed by a multi-functional microplate reader Envision.
% Inhibition is calculated as follows: % Inhibition = 100−(Signalcmpd−SignalAve_BL)/(SignalAve_VC−SignalAve_BL)*100 [formula] • Signalcmpd: Average signal of the compound in the cell plate • Signalave_vc: Average signal of the negative control in the cell plate • Signalave_BL: Average signal of the blank wells in the cell plate
IC50 was calculated by fitting % inhibition and compound concentration logarithmically to a nonlinear regression (dose response - variable slope) using Graphpad 8.0. Table 2 IC50 of selected compounds in NUGC-3 cell proliferation assay

[1] = NUGC-3 cell proliferation, 7 days, CTG, read-out: IC50

**Q.** Which results are given for CN1CC[C@@H](Nc2cccc3c(CC(F)(F)F)c(C#CCNC(=O)c4ccc(C(C)(C)O)cc4)nn23)[C@@H](F)C1 [Compound 230, N-[3-(7-{[(3S,4R)-3-fluoro-1-methylpiperidin-4-yl]amino}-3-(2,2,2-trifluoroethyl)pyrazolo[1,5-a]pyridin-2-yl)prop-2-yn-1-yl]-4-(2-hydroxyprop-2-yl)benzamide]?
**A.** SC150 (p53-Y220C mutant protein): 29 nM; IC50 (NUGC-3 cells; [1]): 1060 nM

**Q.** What does the source list for CN1CC[C@@H](Nc2cccc3c(CC(F)(F)F)c(C#CCNC(=O)c4cnn5c4CCC5)nn23)[C@@H](F)C1 [Compound 231, N-[3-(7-{[(3S,4R)-3-fluoro-1-methylpiperidin-4-yl]amino}-3-(2,2,2-trifluoroethyl)pyrazolo[1,5-a]pyridin-2-yl)prop-2-yn-1-yl]-5,6-dihydro-4H-pyrrolo[1,2-b]pyrazole-3-carboxamide]?
**A.** SC150 (p53-Y220C mutant protein): 19 nM; IC50 (NUGC-3 cells; [1]): 724 nM

**Q.** How did the SC150 (p53-Y220C mutant protein) turn out when CN1CC[C@@H](Nc2cccc3c(CC(F)(F)F)c(C#CCNC(=O)c4cnn(C(C)(C)CO)c4)nn23)[C@@H](F)C1 [Compound 232, N-[3-(7-{[(3S,4R)-3-fluoro-1-methylpiperidin-4-yl]amino}-3-(2,2,2-trifluoroethyl)pyrazolo[1,5-a]pyridin-2-yl)prop-2-yn-1-yl]-1-(1-hydroxy-2-methylprop-2-yl)-1H-pyrazole-4-carboxamide] was run?
**A.** The SC150 was 8 nM.

**Q.** What about the IC50 (NUGC-3 cells; [1]) of the same compound?
**A.** Its IC50 is 419 nM.

**Q.** Which results are given for CN1CC[C@@H](Nc2cccc3c(CC(F)(F)F)c(C#CCNC(=O)c4ccc(C(C)(C)O)nc4)nn23)[C@@H](F)C1 [Compound 236, N-[3-(7-{[(3S,4R)-3-fluoro-1-methylpiperidin-4-yl]amino}-3-(2,2,2-trifluoroethyl)pyrazolo[1,5-a]pyridin-2-yl)prop-2-yn-1-yl]-6-(2-hydroxyprop-2-yl)pyridine-3-carboxamide]?
**A.** SC150 (p53-Y220C mutant protein): 22 nM; IC50 (NUGC-3 cells; [1]): 1280 nM

**Q.** With CN1CC[C@@H](Nc2cccc3c(CC(F)(F)F)c(C#CCNC(=O)c4cc5n(c4)CCC5)nn23)[C@@H](F)C1 [Compound 260, N-[3-(7-{[(3S,4R)-3-fluoro-1-methylpiperidin-4-yl]amino}-3-(2,2,2-trifluoroethyl)pyrazolo[1,5-a]pyridin-2-yl)prop-2-yn-1-yl]-2,3-dihydro-1H-pyrrolizine-6-carboxamide] as the compound, how does the SC150 (p53-Y220C mutant protein) read?
**A.** The SC150 was 18 nM.

**Q.** What about the IC50 (NUGC-3 cells; [1]) of the same compound?
**A.** Its IC50 is 1190 nM.

**Q.** What does the source list for CN1CC[C@@H](Nc2cccc3c(CC(F)(F)F)c(C#CCNC(=O)c4ccn(C)c4)nn23)[C@@H](F)C1 [Compound 270, N-[3-(7-{[(3S,4R)-3-fluoro-1-methylpiperidin-4-yl]amino}-3-(2,2,2-trifluoroethyl)pyrazolo[1,5-a]pyridin-2-yl)prop-2-yn-1-yl]-1-methyl-1H-pyrrole-3-carboxamide]?
**A.** SC150 (p53-Y220C mutant protein): 13 nM; IC50 (NUGC-3 cells; [1]): 818 nM

**Q.** Which SC150 (p53-Y220C mutant protein) does the source give for CN1CC[C@@H](Nc2cccc3c(CC(F)(F)F)c(C#CCNC(=O)c4cc(C#N)n(C)c4)nn23)[C@@H](F)C1 [Compound 271, 5-cyano-N-[3-(7-{[(3S,4R)-3-fluoro-1-methylpiperidin-4-yl]amino}-3-(2,2,2-trifluoroethyl)pyrazolo[1,5-a]pyridin-2-yl)prop-2-yn-1-yl]-1-methyl-1H-pyrrole-3-carboxamide] here?
**A.** The SC150 was 23 nM.

**Q.** And the IC50 (NUGC-3 cells; [1])?
**A.** The IC50 was 936 nM.

**Q.** Which results are given for Cc1cc(C(=O)NCC#Cc2nn3c(N[C@@H]4CCN(C)C[C@@H]4F)cccc3c2CC(F)(F)F)c[nH]1 [Compound 272, N-[3-(7-{[(3S,4R)-3-fluoro-1-methylpiperidin-4-yl]amino}-3-(2,2,2-trifluoroethyl)pyrazolo[1,5-a]pyridin-2-yl)prop-2-yn-1-yl]-5-methyl-1H-pyrrole-3-carboxamide]?
**A.** SC150 (p53-Y220C mutant protein): 13 nM; IC50 (NUGC-3 cells; [1]): 1230 nM

**Q.** Which SC150 (p53-Y220C mutant protein) does the source give for CN1CC[C@@H](Nc2cccc3c(CC(F)(F)F)c(C#CCNC(=O)c4ccn(C5CC5)c4)nn23)[C@@H](F)C1 [Compound 280, 1-cycloproyl-N-[3-(7-{[(3S,4R)-3-fluoro-1-methylpiperidin-4-yl]amino}-3-(2,2,2-ethyl trifluoroacetate)pyrazolo[1,5-a]pyridin-2-yl)-prop-2-yn-1-yl]-1H-pyrrole-3-carboxamide] here?
**A.** Its SC150 is 16 nM.

**Q.** What about the IC50 (NUGC-3 cells) of the same compound?
**A.** Its IC50 is 1060 nM.

**Q.** CN1CC[C@@H](Nc2cccc3c(CC(F)(F)F)c(C#CCNC(=O)c4cnn(CC5CCC5)c4N)nn23)[C@@H](F)C1 [Compound 284, 5-amino-1-(cyclobutylmethyl)-N-[3-(7-{[(3S,4R)-3-fluoro-1-methylpiperidin-4-yl]amino}-3-(2,2,2-trifluoroethyl)pyrazolo[1,5-a]pyridin-2-yl)prop-2-yn-1-yl]-1H-pyrazole-4-carboxamide] was tested. Which SC150 (p53-Y220C mutant protein) did it give?
**A.** The SC150 was 12 nM.

**Q.** And the IC50 (NUGC-3 cells; [1])?
**A.** The IC50 was 360 nM.

**Q.** CN1CC[C@@H](Nc2cccc3c(CC(F)(F)F)c(C#CCNC(=O)c4cnn(C(C)(C)C5CC5)c4N)nn23)[C@@H](F)C1 [Compound 290, 5-amino-1-(2-cyclopropylprop-2-yl)-N-[3-(7-{[(3S,4R)-3-fluoro-1-methylpiperidin-4-yl]amino}-3-(2,2,2-trifluoroethyl)pyrazolo[1,5-a]pyridin-2-yl)prop-2-yn-1-yl]-1H-pyrazole-4-carboxamide] was tested. Which SC150 (p53-Y220C mutant protein) did it give?
**A.** Its SC150 is 11 nM.

**Q.** What about the IC50 (NUGC-3 cells; [1]) of the same compound?
**A.** The IC50 was 355 nM.

**Q.** How did the SC150 (p53-Y220C mutant protein) turn out when CC(C1CC1)n1ncc(C(=O)NCC#Cc2nn3c(N[C@@H]4CCN(C)C[C@@H]4F)cccc3c2CC(F)(F)F)c1N (stereo partly drawn) [Compound 291, 5-amino-1-(1-cyclopropylethyl)-N-[3-(7-{[(3S,4R)-3-fluoro-1-methylpiperidin-4-yl]amino}-3-(2,2,2-trifluoroethyl)pyrazolo[1,5-a]pyridin-2-yl)prop-2-yn-1-yl]-1H-pyrazole-4-carboxamide] was run?
**A.** The SC150 was 7 nM.

**Q.** What about the IC50 (NUGC-3 cells; [1]) of the same compound?
**A.** The IC50 was 249 nM.

**Q.** CN1CC[C@@H](Nc2cccc3c(CC(F)(F)F)c(C#CCNC(=O)c4cnn(CC5CC5)c4N)nn23)[C@@H](F)C1 [Compound 292] was tested. Which SC150 (p53-Y220C mutant protein) did it give?
**A.** The SC150 was 8 nM.

**Q.** What about the IC50 (NUGC-3 cells) of the same compound?
**A.** Its IC50 is 214 nM.

**Q.** How did the SC150 (p53-Y220C mutant protein) turn out when CN1CC[C@@H](Nc2cccc3c(CC(F)(F)F)c(C#CCNC(=O)c4ccc(N)nc4)nn23)[C@@H](F)C1 [Compound 296, 6-amino-N-[3-(7-{[(3S,4R)-3-fluoro-1-methylpiperidin-4-yl]amino}-3-(2,2,2-trifluoroethyl)pyrazolo[1,5-a]pyridin-2-yl)prop-2-yn-1-yl]nicotinamide] was run?
**A.** Its SC150 is 21 nM.

**Q.** What about the IC50 (NUGC-3 cells; [1]) of the same compound?
**A.** Its IC50 is 1230 nM.

**Q.** Which SC150 (p53-Y220C mutant protein) does the source give for COC(C)(C)Cn1ccc(C(=O)NCC#Cc2nn3c(N[C@@H]4CCN(C)C[C@@H]4F)cccc3c2CC(F)(F)F)c1 [Compound 300, N-[3-(7-{[(3S,4R)-3-fluoro-1-methylpiperidin-4-yl]amino}-3-(2,2,2-trifluoroethyl)pyrazolo[1,5-a]pyridin-2-yl)prop-2-yn-1-yl]-1-(2-methoxy-2-methylpropyl)-1H-pyrrole-3-carboxamide] here?
**A.** Its SC150 is 12 nM.

**Q.** And the IC50 (NUGC-3 cells; [1])?
**A.** The IC50 was 411 nM.

**Q.** How did the SC150 (p53-Y220C mutant protein) turn out when CN1CC[C@@H](Nc2cccc3c(CC(F)(F)F)c(C#CCNC(=O)c4ccn5c4COCC5)nn23)[C@@H](F)C1 [Compound 301, N-[3-(7-{[(3S,4R)-3-fluoro-1-methylpiperidin-4-yl]amino}-3-(2,2,2-trifluoroethyl)pyrazolo[1,5-a]pyridin-2-yl)prop-2-yn-1-yl]-3,4-dihydro-1H-pyrrolo[2,1-c][1,4]oxazine-8-carboxamide] was run?
**A.** The SC150 was 27 nM.

**Q.** And the IC50 (NUGC-3 cells; [1])?
**A.** The IC50 was 1190 nM.

**Q.** CN1CC[C@@H](Nc2cccc3c(CC(F)(F)F)c(C#CCNC(=O)c4cnn(C5CC5)c4N)nn23)[C@@H](F)C1 [Compound 305, 5-amino-N-[3-(7-{[(3S,4R)-3-fluoro-1-methylpiperidin-4-yl]amino}-3-(2,2,2-trifluoroethyl)pyrazolo[1,5-a]pyridin-2-yl)prop-2-yn-1-yl]-1-(cyclopropyl)-1H-pyrazole-4-carboxamide] was tested. Which SC150 (p53-Y220C mutant protein) did it give?
**A.** Its SC150 is 7 nM.

**Q.** What about the IC50 (NUGC-3 cells; [1]) of the same compound?
**A.** Its IC50 is 193 nM.

**Q.** With CC(C)n1ncc(C(=O)NCC#Cc2nn3c(N[C@@H]4CCN(C)C[C@@H]4F)cccc3c2CC(F)(F)F)c1N [Compound 306, 5-amino-N-[3-(7-{[(3S,4R)-3-fluoro-1-methylpiperidin-4-yl]amino}-3-(2,2,2-trifluoroethyl)pyrazolo[1,5-a]pyridin-2-yl)prop-2-yn-1-yl]-1-isopropyl-1H-pyrazole-4-carboxamide] as the compound, how does the SC150 (p53-Y220C mutant protein) read?
**A.** Its SC150 is 6 nM.

**Q.** What about the IC50 (NUGC-3 cells; [1]) of the same compound?
**A.** The IC50 was 142 nM.

**Q.** [2H]C([2H])([2H])N1CC[C@@H](Nc2cccc3c(CC(F)(F)F)c(C#CCNC(=O)c4cnn(C(C)(C)C)c4N)nn23)[C@@H](F)C1 [Compound 311, 5-amino-1-(tert-butyl)-N-[3-(7-{[(3S,4R)-3-fluoro-1-(methyl-d3)piperidin-4-yl]amino}-3-(2,2,2-trifluoroethyl)pyrazolo[1,5-a]pyridin-2-yl)prop-2-yn-1-yl]-1H-pyrazole-4-carboxamide] was tested. Which SC150 (p53-Y220C mutant protein) did it give?
**A.** The SC150 was 4 nM.

**Q.** What about the IC50 (NUGC-3 cells; [1]) of the same compound?
**A.** Its IC50 is 173 nM.

From patent EP4737449A1 (Changchun Genescience Pharmaceutical Co., Ltd., priority 2023, dated 2025)
